Data on 8 compounds can be found in patent US9278922B2 (ABBVIE INC., priority 2009, dated 2016).

Each structure is given as a SMILES string. A value given as a limit tells only on which side of the number the result lay.

The subject of this assay is HCV 1b-Con-1 replicon. Description: HCV 1b-Con-1 replicon assay (luciferase reporter gene, HuH-7 cells). The assay is classed as cell-based, Hepatitis C virus (HCV) genotype 1b-Con1. To be noted: Hepatitis C virus, Huh-7, luciferase reporter gene activity in the replicon, in the presence of 5% FBS.
`COC(=O)N[C@H](C(=O)N1CCC[C@H]1C(=O)Nc1ccc(CN(Cc2ccc(NC(=O)[C@@H]3CCCN3C(=O)[C@H](N)c3ccccc3)cc2)c2ccccc2)cc1)C(C)(C)C` [Example 77, N-(methoxycarbonyl)-3-methyl-L-valyl-N-[4-({[4-({1-[(2R)-2-amino-2-phenylacetyl]-L-proly}amino)benzyl](phenyl)amino}methyl)phenyl]-L-prolinamide]: the EC50 was under 1 nM.

Regarding `COC(=O)N[C@H](C(=O)N1CCC[C@H]1c1nc2cc(CN(Cc3ccc4[nH]c([C@@H]5CCCN5C(=O)[C@@H](NC(=O)OC)C(C)C)nc4c3)c3ccc(F)cc3)ccc2[nH]1)C(C)C` [Example 96, methyl [(1S)-1-{[(2S)-2-(5-{[(4-fluorophenyl)({2-[(2S)-1-{(2S)-2-[(methoxycarbonyl)amino]-3-methylbutanoyl}pyrrolidin-2-yl]-1H-benzimidazol-5-yl}methyl)amino]methyl}-1H-benzimidazol-2-yl)pyrrolidin-1-yl]carbonyl}-2-methylpropyl]carbamate], the concentration giving a half-maximal response (EC50) is under 1 nM.

With `COC(=O)N[C@H](C(=O)N1CCC[C@H]1C(=O)Nc1ccc(CN(Cc2ccc(NC(=O)[C@@H]3CCCN3C(=O)[C@@H](NC(=O)OC)[C@@H](C)O)cc2)c2ccccc2)cc1)[C@@H](C)O` [Example 25, dimethyl[(phenylimino)bis{methanediylbenzene-4,1-diylcarbamoyl(2S)pyrrolidine-2,1-diyl[(2S,3R)-3-hydroxy-1-oxobutane-1,2-diyl]}]biscarbamate], the EC50 lay in the range of 1 to 10 nM.

Take `CC(C)C(C(=O)N1CCC[C@H]1C(=O)Nc1ccc(CN(Cc2ccc(NC(=O)[C@@H]3CCCN3C(=O)C(c3ccccc3)C(C)C)cc2)c2ccc(F)cc2)cc1)c1ccccc1` (stereo partly drawn) [Example 108, (2S,2′S)-N,N′-{[(4-fluorophenyl)imino]bis(methanediylbenzene-4,1-diyl)}bis[1-(3-methyl-2-phenylbutanoyl)pyrrolidine-2-carboxamide]]: the EC50 lay in the range of 1 to 10 nM.

Turning to `COC(=O)N[C@H](C(=O)N1CCC[C@H]1C(=O)Nc1ccc(CN(Cc2ccc(NC(=O)[C@@H]3CCCN3C(=O)[C@@H](c3ccccc3)N3CCOCC3)cc2)c2ccccc2)cc1)C(C)(C)C` [Example 58, N-(methoxycarbonyl)-3-methyl-L-valyl-N-[4-({[4-({1-[(2R)-2-morpholin-4-yl-2-phenylacetyl]-L-prolyl}amino)benzyl](phenyl)amino}methyl)phenyl]-L-prolinamide], the EC50 is under 1 nM.

Regarding `COC(=O)N[C@H](C(=O)N1CCC[C@H]1C(=O)Nc1ccc(CN(Cc2ccc(NC(=O)[C@@H]3CCCN3C(=O)[C@@H](NC(=O)OC)[C@@H](C)OC)cc2)c2ccccc2)cc1)[C@@H](C)OC` [Example 51, dimethyl[(phenylimino)bis{methanediylbenzene-4,1-diylcarbamoyl(2S)pyrrolidine-2,1-diyl[(2S,3R)-3-methoxy-1-oxobutane-1,2-diyl]}]biscarbamate], the concentration for a half-maximal effect (EC50) lay in the range of 1 to 10 nM.

Regarding `COC(=O)N[C@H](C(=O)N1CCC[C@H]1C(=O)Nc1cccc(CN(Cc2cccc(NC(=O)[C@@H]3CCCN3C(=O)[C@@H](NC(=O)OC)C(C)C)c2)c2ccc(F)cc2)c1)C(C)C` [Example 146, dimethyl ([(4-fluorophenyl)imino]bis{methanediylbenzene-3,1-diylcarbamoyl(2S)pyrrolidine-2,1-diyl[(2S)-3-methyl-1-oxobutane-1,2-diyl]})biscarbamate], the EC50 was in the range of 1 to 10 nM.

With `CC(C)[C@@H](C(=O)N1CCC[C@H]1C(=O)Nc1ccc(CN(Cc2ccc(NC(=O)[C@@H]3CCCN3C(=O)[C@H](C(C)C)N3CCCNC3=O)cc2)c2ccccc2)cc1)N1CCCNC1=O` [Example 36, (2S,2′S)-N,N′-[(phenylimino)bis(methanediylbenzene-4,1-diyl)]bis {1-[(2S)-3-methyl-2-(2-oxotetrahydropyrimidin-1(2H)-yl)butanoyl]pyrrolidine-2-carboxamide}], the EC50 lay in the range of 1 to 10 nM.
